# According to patent US9255295B2, “Method for evaluating the sensitizing potential of a test compound” (IMMUNOSEARCH, priority 2010, dated 2016):
# Like-named read-outs stand apart in the source and are kept apart here.
# Experiments:
# [1] = official classification: non-sensitizer, irritant, or sensitizing Extreme/Strong/Moderate/Weak; cited from earlier work
# [2] = test system: ARE gene family (AKR1B10, AKR1C1, AKR1C2, CYP1B1, FTH1P, FTL, G6PD, GCLM, NQO2, SLC7A11, TXNRD1, UGT1A1, UGT1A9, YWHAZ, CD36, CYP1A1, GCLC, HMOX1, NQO1, PSME2 …); settings: human, 6 h
# [3] = test system: genes specific for sensitization (BRAK, CTSS, DAPK2, FABP4, HSP27, IL18, HSP90, IL1R2, TPSAB1, CXCR1, DEFB1, DHFR, EHF, IVL, KRT4, MELANA, NGAL, PDZK1IP1, PI3 …); test: Expression of the other (non-ARE) sensitization-specific genes in EPISKIN reconstructed skin (quantitative RT-PCR); assay type: cell-based, human; settings: for BRAK expression / CTSS expression / CXCR1 expression / DAPK2 expression / DEFB1 expression / DHFR expression / EHF expression / FABP4 expression / HSP27 expression / HSP90 expression / IL18 expression / IVL expression / KRT4 expression / MELANA expression / NGAL expression / P13 expression / PDZK1iP1 expression / SERPINB3 expression: compared to the control;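 on CTSS NUMBER OF GENES grade: grade scored against expression in the control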;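 on CXCR1 NUMBER OF GENES grade: grade scored against expression in the control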;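 on DAPK2 NUMBER OF GENES grade: grade scored against expression in the control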
smiles,measurement,setting,value
N#CCCC(Br)(C#N)CBr (centres unmarked) [2-Bromo-2-(bromomethyl)glutaronitrile],Class,[1],S
O=CCCCC=O [Glutaraldehyde],Class,[1],S
"CC(O)C(=O)O (centres unmarked) [Lactic acid (cys pos), Lactic acid]",CD36 expression,[2]; 1 %,1.1
same,S100A8 expression,[2]; 1 %,0.8
same,CD36 expression,[2]; 10 %,1.1
same,S100A8 expression,[2]; 10 %,1.0
same,CD36 expression,[2]; 50 %,0.9
same,S100A8 expression,[2]; 50 %,1.1
same,BRAK NUMBER OF GENES grade,[3]; 1%,"0 (if this expression is lower, the grade is 0)"
same,CTSS NUMBER OF GENES grade,[3]; 1%,"0 (if this expression is lower, the grade is 0)"
same,CXCR1 NUMBER OF GENES grade,[3]; 1%,"0 (if this expression is lower, the grade is 0)"
same,DAPK2 NUMBER OF GENES grade,[3]; 1%,"0 (if this expression is lower, the grade is 0)"
same,DEFB1 NUMBER OF GENES grade,[3]; 1%,"0 (if this expression is lower, the grade is 0)"
same,DHFR NUMBER OF GENES grade,[3]; 1%,"0 (if this expression is lower, the grade is 0)"
same,EHF NUMBER OF GENES grade,[3]; 1%,"0 (if this expression is lower, the grade is 0)"
same,FABP4 NUMBER OF GENES grade,[3]; 1%,"0 (if this expression is lower, the grade is 0)"
same,HSP27 NUMBER OF GENES grade,[3]; 1%,"0 (if this expression is lower, the grade is 0)"
same,HSP90 NUMBER OF GENES grade,[3]; 1%,"0 (if this expression is lower, the grade is 0)"
same,IL18 NUMBER OF GENES grade,[3]; 1%,"0 (if this expression is lower, the grade is 0)"
same,IVL NUMBER OF GENES grade,[3]; 1%,"0 (if this expression is lower, the grade is 0)"
same,KRT4 NUMBER OF GENES grade,[3]; 1%,"0 (if this expression is lower, the grade is 0)"
same,MELANA NUMBER OF GENES grade,[3]; 1%,"0 (if this expression is lower, the grade is 0)"
same,NGAL NUMBER OF GENES grade,[3]; 1%,"0 (if this expression is lower, the grade is 0)"
same,P13 NUMBER OF GENES grade,[3]; 1%,"0 (if this expression is lower, the grade is 0)"
same,PDZK1iP1 NUMBER OF GENES grade,[3]; 1%,"0 (if this expression is lower, the grade is 0)"
same,SERPINB3 NUMBER OF GENES grade,[3]; 1%,"0 (if this expression is lower, the grade is 0)"
same,TOTAL SENS (number of genes),[3]; 1%,0
same,BRAK expression,[3]; 1%,0.8
same,CTSS expression,[3]; 1%,1.0
same,CXCR1 expression,[3]; 1%,0.7
same,DAPK2 expression,[3]; 1%,1.2
same,DEFB1 expression,[3]; 1%,0.9
same,DHFR expression,[3]; 1%,0.9
same,EHF expression,[3]; 1%,0.9
same,FABP4 expression,[3]; 1%,0.7
same,HSP27 expression,[3]; 1%,1.0
same,HSP90 expression,[3]; 1%,1.0
same,IL18 expression,[3]; 1%,0.9
same,IVL expression,[3]; 1%,1.0
same,KRT4 expression,[3]; 1%,0.9
same,MELANA expression,[3]; 1%,0.7
same,NGAL expression,[3]; 1%,0.9
same,P13 expression,[3]; 1%,0.8
same,PDZK1iP1 expression,[3]; 1%,1.0
same,SERPINB3 expression,[3]; 1%,0.9
same,BRAK NUMBER OF GENES grade,[3]; 10%,"0 (if this expression is lower, the grade is 0)"
same,CTSS NUMBER OF GENES grade,[3]; 10%,"0 (if this expression is lower, the grade is 0)"
same,CXCR1 NUMBER OF GENES grade,[3]; 10%,"0 (if this expression is lower, the grade is 0)"
same,DAPK2 NUMBER OF GENES grade,[3]; 10%,"0 (if this expression is lower, the grade is 0)"
same,DEFB1 NUMBER OF GENES grade,[3]; 10%,"0 (if this expression is lower, the grade is 0)"
same,DHFR NUMBER OF GENES grade,[3]; 10%,"0 (if this expression is lower, the grade is 0)"
same,EHF NUMBER OF GENES grade,[3]; 10%,"0 (if this expression is lower, the grade is 0)"
same,FABP4 NUMBER OF GENES grade,[3]; 10%,"0 (if this expression is lower, the grade is 0)"
same,HSP27 NUMBER OF GENES grade,[3]; 10%,"0 (if this expression is lower, the grade is 0)"
same,HSP90 NUMBER OF GENES grade,[3]; 10%,"0 (if this expression is lower, the grade is 0)"
same,IL18 NUMBER OF GENES grade,[3]; 10%,"0 (if this expression is lower, the grade is 0)"
same,IVL NUMBER OF GENES grade,[3]; 10%,"0 (if this expression is lower, the grade is 0)"
same,KRT4 NUMBER OF GENES grade,[3]; 10%,"0 (if this expression is lower, the grade is 0)"
same,MELANA NUMBER OF GENES grade,[3]; 10%,"0 (if this expression is lower, the grade is 0)"
same,NGAL NUMBER OF GENES grade,[3]; 10%,"0 (if this expression is lower, the grade is 0)"
same,P13 NUMBER OF GENES grade,[3]; 10%,"0 (if this expression is lower, the grade is 0)"
same,PDZK1iP1 NUMBER OF GENES grade,[3]; 10%,"0 (if this expression is lower, the grade is 0)"
same,SERPINB3 NUMBER OF GENES grade,[3]; 10%,"0 (if this expression is lower, the grade is 0)"
same,TOTAL SENS (number of genes),[3]; 10%,0
same,BRAK expression,[3]; 10%,1.0
same,CTSS expression,[3]; 10%,1.1
same,CXCR1 expression,[3]; 10%,0.7
same,DAPK2 expression,[3]; 10%,1.1
same,DEFB1 expression,[3]; 10%,1.0
same,DHFR expression,[3]; 10%,1.0
same,EHF expression,[3]; 10%,0.9
same,FABP4 expression,[3]; 10%,0.9
same,HSP27 expression,[3]; 10%,0.9
same,HSP90 expression,[3]; 10%,0.9
same,IL18 expression,[3]; 10%,1.0
same,IVL expression,[3]; 10%,0.9
same,KRT4 expression,[3]; 10%,0.8
same,MELANA expression,[3]; 10%,0.8
same,NGAL expression,[3]; 10%,1.0
same,P13 expression,[3]; 10%,0.8
same,PDZK1iP1 expression,[3]; 10%,1.0
same,SERPINB3 expression,[3]; 10%,1.1
same,BRAK NUMBER OF GENES grade,[3]; 50%,"0 (if this expression is lower, the grade is 0)"
same,CTSS NUMBER OF GENES grade,[3]; 50%,"1 (If the expression is greater than 1.3 compared to the control, a grade of 11s given)"
same,CXCR1 NUMBER OF GENES grade,[3]; 50%,"0 (if this expression is lower, the grade is 0)"
same,DAPK2 NUMBER OF GENES grade,[3]; 50%,"0 (if this expression is lower, the grade is 0)"
same,DEFB1 NUMBER OF GENES grade,[3]; 50%,"0 (if this expression is lower, the grade is 0)"
same,DHFR NUMBER OF GENES grade,[3]; 50%,"0 (if this expression is lower, the grade is 0)"
same,EHF NUMBER OF GENES grade,[3]; 50%,"0 (if this expression is lower, the grade is 0)"
same,FABP4 NUMBER OF GENES grade,[3]; 50%,"0 (if this expression is lower, the grade is 0)"
same,HSP27 NUMBER OF GENES grade,[3]; 50%,"0 (if this expression is lower, the grade is 0)"
same,HSP90 NUMBER OF GENES grade,[3]; 50%,"0 (if this expression is lower, the grade is 0)"
same,IL18 NUMBER OF GENES grade,[3]; 50%,"0 (if this expression is lower, the grade is 0)"
same,IVL NUMBER OF GENES grade,[3]; 50%,"0 (if this expression is lower, the grade is 0)"
same,KRT4 NUMBER OF GENES grade,[3]; 50%,"0 (if this expression is lower, the grade is 0)"
same,MELANA NUMBER OF GENES grade,[3]; 50%,"0 (if this expression is lower, the grade is 0)"
same,NGAL NUMBER OF GENES grade,[3]; 50%,"0 (if this expression is lower, the grade is 0)"
same,P13 NUMBER OF GENES grade,[3]; 50%,"0 (if this expression is lower, the grade is 0)"
same,PDZK1iP1 NUMBER OF GENES grade,[3]; 50%,"0 (if this expression is lower, the grade is 0)"
same,SERPINB3 NUMBER OF GENES grade,[3]; 50%,"0 (if this expression is lower, the grade is 0)"
same,TOTAL SENS (number of genes),[3]; 50%,1
same,BRAK expression,[3]; 50%,0.7
same,CTSS expression,[3]; 50%,1.4
same,CXCR1 expression,[3]; 50%,0.8
same,DAPK2 expression,[3]; 50%,1.1
same,DEFB1 expression,[3]; 50%,1.1
same,DHFR expression,[3]; 50%,0.9
same,EHF expression,[3]; 50%,0.9
same,FABP4 expression,[3]; 50%,0.8
same,HSP27 expression,[3]; 50%,0.8
same,HSP90 expression,[3]; 50%,0.9
same,IL18 expression,[3]; 50%,0.8
same,IVL expression,[3]; 50%,0.9
same,KRT4 expression,[3]; 50%,0.8
same,MELANA expression,[3]; 50%,0.6
same,NGAL expression,[3]; 50%,1.0
same,P13 expression,[3]; 50%,0.9
same,PDZK1iP1 expression,[3]; 50%,1.0
same,SERPINB3 expression,[3]; 50%,1.2
